The values that follow come from patent US9353116B2, “Methods and compositions for kinase inhibition” (THE REGENTS OF THE UNIVERSITY OF CALIFORNIA, priority 2010, dated 2016).

The target in data set [1] is T1, WT c-Src (Gallus gallus (Chicken), UniProt P00523). Briefly: In vitro kinase assay, WT c-Src. The class given is biochemical. The settings on record: inhibitor preincubated with Src ten minutes prior to addition of ATP; read-out: WT c-Src IC50. How it is done: (§1) In vitro kinase assays for c-Src variants were performed in 50 mM Tris (pH 8.0), 10 mM MgCl2 and 1 mg/mL BSA. When obtaining kinetic parameters (kcat, Km) kinase and peptide substrate (IYGEFKKK) (SEQ ID NO:51) concentrations were 2 nM and 500 μM, respectively, while ATP concentrations ranged from 2000-0.655 μM. Addition of nonradioactive ATP supplemented with ^32P ATP (3,000 Ci/mmol, NEN) was used to initiate kinase reactions. Time points were selected such that product formation never exceeded 10%. Reactions were quenched by spotting 3 μL quantities onto phosphocellulose sheets (P81, Whatman). Afterwards, the sheets were washed 3×5 minutes in 0.5% phosphoric acid and dried. Radioactivity was measured by phosphorimaging and recorded on a Typhoon fluorescence imager (Molecular Dynamics). Data were plotted as rate (min^−1) versus ATP concentration and fitted to the Michaelis-Menten equation, v=[(kcat)[S]]/(Km+[S]), using Kaleidagraph software (Synergy) to extract kinetic parameters. When obtaining IC50 values for the inhibitors, 2% (v/v) DMSO was included in kinase reactions. In these cases ATP, peptide, and enzyme concentrations were 15 nM, 100 μM and 5 nM, respectively, while inhibitor concentrations ranged from 10,000-0.610 nM. In all cases, a ten-minute preincubation step between the kinase and the inhibitor preceded addition of ATP and a fifteen-minute reaction. The data was fitted to a sigmoidal dose-response curve using Prism 4.0c (GraphPad Software) to obtain IC50 values.

Data set [2] deals with T2, T338C c-Src (Gallus gallus (Chicken), UniProt P00523, T338C). Briefly: In vitro kinase assay, T338C c-Src (c-Src-ES1). The class given is biochemical. Particulars: for pIC50: inhibitor preincubated with Src ten minutes prior to addition of ATP, read-out: T338C c-Src IC50. How it is done: as §1, with “In all cases, a ten-minute preincubation step between the kinase and the inhibitor preceded addition of ATP and a fifteen-minute reaction.” left out

A short description of the next data set: Toxicity profiles (LD50). Particulars: FIG. 17-19.
Data set [3] has as its target T2, T338C c-Src. Briefly: Full protein mass spectrometry of covalent labeling. The class given is binding. Particulars: two equivalents of inhibitor. On the procedure:
Protein labeling conditions: Kinase labeling reactions were performed by incubating 30 μL quantities of c-Src variants (in 50 mM Tris pH 8, 100 mM NaCl, 1 mM DTT, 5% glycerol) with two equivalents of inhibitor in DMSO (final DMSO concentration=2.4%). The covalent labeling reaction was quenched by removing 4 μL and adding it to 31 μL of 0.1% formic acid. The sample was then analyzed by ES1-oa-TOF mass spectrometry.

A further data set has as its system 307 kinases. Briefly: Kinome-wide profiling (SelectScreen Kinase Profiling Service). The settings on record: compounds at 1 μM, ATP at Km,app. The class given is biochemical. On the procedure:
The percent inhibition results in FIG. were generated with biochemical enzymatic kinase assays using the SelectScreen® Kinase Profiling Service (Life Technologies Corporation, Madison, Wis.). Compounds were assayed at 1 μM at an ATP concentration equal to the ATP Km,app for the assay following the detailed procedures described in the SelectScreen® Customer Protocol and Assay Conditions documents located at www.invitrogen.com/kinaseprofiling.
Compounds that were profiled include, but are not limited to, 3, 4, 9, 13, and 20. […] The exocyclic amine mimics N6 of ATP and plays an important role in a hydrogen bonding interaction with the hinge region of kinases.

Data set [4] has as its target T2, T338C c-Src. Briefly: Gel filtration and kinetic assay, T338C c-Src. The class given is biochemical. Particulars: 23 μM inhibitor, 25 minutes, then PD10 desalting. On the procedure:
(§2) Inhibitors (final concentration 23 μM) were incubated with c-Src variants (final concentration 11.5 μM) in kinase reaction buffer (50 mM Tris pH 8, 100 mM NaCl, 1 mM DTT, 5% glycerol, 5% DMSO) for 25 minutes at room temperature. The solutions (2.6 mL total) were then passed over PD10 desalting columns (GE Healthcare) using the kinase reaction buffer for elution. Src concentrations were calculated using the extinction coefficient for c-Src (51.140 mM^−1cm^−1) {Seeliger, 2005 #100}. Kinase assays were performed as described in the experimental section at a final enzyme concentration of 10 nM.

The target of a further data set is c-Src-ES2 (T338C/V323A) (Gallus gallus (Chicken), UniProt P00523, T338C/V323A). Briefly: In vitro kinase assay, c-Src-ES2. The class given is biochemical. How it is done:
as §1

The target in data set [5] is T1, WT c-Src. Briefly: Gel filtration and kinetic assay, WT c-Src. The class given is biochemical. Particulars: 23 μM inhibitor, 25 minutes, then PD10 desalting. On the procedure: as §2
A further data set deals with c-Src-ES3 (T338C/V323S) (Gallus gallus (Chicken), UniProt P00523, T338C/V323S). Briefly: In vitro kinase assay, c-Src-ES3. The class given is biochemical. Particulars: ES3 = T338C/V323S; read-out: c-Src variant IC50 (nM) ES3. On the procedure: as §1
A further data set addresses I338T v-Src (Rous sarcoma virus (strain H-19), UniProt P25020, I338T). The class given is cell-based. How it is done: (§3) Curr Biol 8(5):257-266. Cells were grown to 60-90% confluence in DMEM supplemented with fetal bovine serum (10%), penicillin ‘G’ (100 units/ml) and streptomycin sulfate (100 μg/ml) (PenStrep, UCSF Cell Culture Facility) prior to treatment with kinase inhibitors dissolved in DMSO (final DMSO concentration, 0.5%). Following 1 hour of incubation with inhibitors at 37° C., cells were harvested in lysis buffer (50 mM Tris (pH 7.4), 300 mM NaCl, 5 mM EDTA, 1% triton, 0.02% NaN3, 1× complete mini protease inhibitor (Roche), 1 mM PMSF, 1×PHOS-stop (Roche), 0.02 μM microcystin, 2 mM sodium orthovanadate), normalized for concentration and analyzed by Western blot for global phosphotyrosine levels (4G10, Millipore, 1:1000). Levels of β-actin (β-actin Antibody, Cell Signaling, 1:1000) and v-Src (Src 32G6 rabbit mAb, Cell Signaling, 1:1000) were ascertained by Western blot.
(§4) I338C (v-Src-ES1, SEQ ID NO:48), I338T (SEQ ID NO:49), I338G (v-Src-AS1, SEQ ID NO:50) and WT v-Src-transformed NIH-3T3 cell lines were generated. Unlike c-Src, v-Src is constitutively active and harbors an isoleucine gatekeeper. The I338T v-Src variant was generated for consistency with the in vitro c-Src studies. For each cell line, global levels of phosphotyrosine were analyzed (FIG. 7). […]

The target in the next data set is v-Src-ES1 (I338C) (Rous sarcoma virus (strain H-19), UniProt P25020, I338C). Briefly: Inhibition assay with v-Src-ES1 transformed NIH-3T3 cells. The class given is cell-based. How it is done: as §3, §4

pIC50: −log10 of the molar value. Where two headings read alike, the source gives them in different places.

`C=CS(=O)(=O)Nc1cccc(Nc2ncnc3cc(OC)c(OC)cc23)c1` [Compound 19, N-(3-(6,7-dimethoxyquinazolin-4-ylamino)phenyl)ethenesulfonamide]: the pIC50 on WT c-Src [1] was less than 5.30; at T338C c-Src [2], 6.00. Further, the LD50 in the data set “Toxicity profiles (LD50)” came to 3.92 µM.
On to `C=CS(=O)(=O)Nc1cccc(Cc2nn(C(C)C)c3ncnc(N)c23)c1` [Compound 9, N-(3-((4-amino-1-isopropyl-1H-pyrazolo[3,4-d]pyrimidin-3-yl)methyl)phenyl)ethenesulfonamide], for which the “covalent labeling / adduct formation by full protein mass spectrometry” value at T338C c-Src [3] is “specific labeling of T338C relative to WT c-Src”. Further, in the data set on 307 kinases, the “off-target profile in kinome-wide screen” value is reported as “relatively few off-target effects”. In addition, the “inhibitory activity after gel filtration, T338C c-Src” value on T338C c-Src [4] is “retained”. Further, the half-maximal inhibitory concentration (IC50) at c-Src-ES2 (T338C/V323A) (ES2 = T338C/V323A, read-out: c-Src variant IC50 (nM) ES2) was found to be 207 nM; at T338C c-Src [2] (ES1 = T338C, read-out: c-Src variant IC50 (nM) ES1), 150 nM; at T338C c-Src [2] (T338C c-Src IC50 (nM), preincubation time 2 min), 981 nM; on T338C c-Src [2] (T338C c-Src IC50 (nM), preincubation time 20 min) it was 309 nM; at T338C c-Src [2] (T338C c-Src IC50 (nM), preincubation time 40 min), 138 nM; on c-Src-ES3 (T338C/V323S), 424 nM. Besides, the “change of inhibitor potency upon second-site Val323 mutations” value on c-Src-ES2 (T338C/V323A) (c-Src-ES2 and c-Src-ES3 relative to c-Src-ES1) was “not modulated appreciably”. For the same compound, the pIC50 on WT c-Src [1] is less than 5.30; on T338C c-Src [2], 6.82. For the same compound, the “inhibitory activity after gel filtration, WT c-Src” value on WT c-Src [5] is “lost”. Also, the “time dependence of inhibition of T338C c-Src” value at T338C c-Src [2] is “time-dependent manner”. At I338T v-Src, the “inhibition of I338T v-Src in cells (global phosphotyrosine levels)” value is “neither 9 nor 13 inhibited I338T v-Src”. Besides, the “inhibition of v-Src-ES1 in cells (global phosphotyrosine levels)” value against v-Src-ES1 (I338C) is on record as “inhibited v-Src-ES1 in a dose-dependent manner”.
